In PMC9830863, “Aspergillus Niger thermostable Cytosine deaminase-dextran conjugates with enhanced structure stability, proteolytic resistance, and Antiproliferative activity” (BMC Microbiology, 2023):
Where two headings read alike, the source gives them in different places.

Experiments:
Cytosine deaminase (CDA) [1] = settings: read-out: Free CDA / Km; free enzyme; Tris-HCl 50 mM pH 7.0, 37 °C
Cytosine deaminase (CDA) [2] = settings: read-out: Free CDA / Km; free enzyme; Tris-HCl 50 mM pH 7.0, 37 °C; remark: listed apart in the source
Text: deamination, released 5-fluorouracil on Cytosine deaminase (CDA)

| Compound | Km (Cytosine deaminase (CDA) [1]) [µM] | Km (Cytosine deaminase (CDA) [2]) [µM] |
| --- | --- | --- |
| Nc1cc[nH]c(=O)n1 [Cytosine] | 360 |  |
| Nc1nc(=O)[nH]cc1F [5-fluorocytosine] |  | 220 |
